# From US20210393932A1, “DERMAL PATCHES AND GLASS SWABS FOR APPLICATION OF TOPICAL IMMUNOSENSITIZERS” (Squarex, LLC, priority 2020, published 2021)
# Entries after “also recorded” stand apart in the source; their conditions may differ.
# Experiments:
# [1] = Toxicity evaluation (body weight, food consumption, necropsy, histopathology) in Gottingen mini-pig; assay type: in vivo, Gottingen miniswine
# From the text: (§1) The purpose of this nonGLP study was to evaluate the effect of various concentrations of SADBE delivered via dermal patch, for dose site irritation and toxicity endpoints such as body weights, group food consumption, clinical observation, pre-termination clinical pathology, gross and histopathology.
# (§2) A total of 6 Gottingen miniswine (3 female and 3 male) was used in this nonGLP study. Prior to dosing, the baseline body weights, group food consumption, and Draize scoring (see tables 1 and 2) for erythema and eschar formation and edema at the future dose site were recorded. A dermal patch (1 patch/animal) loaded with 20 microliters of 2, 6, or 18% SADBE drug solution was applied to animals, and left in place for ˜12 hours. Following the ˜12 hour dosing period, patch sites was assessed by Draize scoring as in Example 5, 5×/week for 21 days. […] After the 25 day assessment period, the animals were re-challenged and a second dosing and assessment phase performed for 30 days. At the end of the survival period, animals were humanely euthanized and a complete necropsy was performed. The test article vials used to prepare patches and mini-pig exposed patches were collected after application to determine SADBE content and SADBE degradation product squaric acid monobutyl ester (SAMBE) using HPLC at Squarex's Laboratory.
# Dose site was explanted, fixed, and embedded. Dose sites were examined histologically and an evaluation of cell type presence and tissue response conducted.
# [2] = Toxicity evaluation (body weight, food consumption, clinical observation, histopathology) in guinea pig; assay type: in vivo
# From the text: as §1
# Thirty (30) guinea pigs (15 female and 15 male) were utilized for this nonGLP study. Prior to and post dosing (dermal patches loaded with 20 microliters of 2, 6, or 18% SADBE drug solution) body weights, group food consumption, and Draize scoring for erythema, eschar formation, and edema at the dose site were be recorded. The dermal patch loaded with SADBE was applied to animals, and left in place for ˜12 hours plus/minus 1 hour. Following the ˜12 hour dosing period, patch sites was assessed by Draize scoring. […] After the 28 days assessment period, re challenge was performed, a second patch (not treated during the induction phase) was applied and assessed by Draize scoring.
# At the end of the survival period, blood was collected for standard hematology and serum chemistry analysis, and the animals humanely euthanized. The second dose site and cervical lymph nodes were collected at necropsy for further histopathological evaluation. Dose site was explanted, fixed, and embedded. Dose sites were examined histologically and an evaluation of cell type presence and tissue response conducted.
# [3] = HPLC analysis of test article vials and patch controls in air (mini-pig study); assay type: physicochemical
# Procedure: Squaric acid dibutyl ester (SADBE) at 2% (w/v) concentration in dimethylsulfoxide (DMSO) was added to a skin patch for dermal dosing of SADBE to test for a delayed-type hypersensitivity response or other skin irritation. In the laboratories of Squarex HPLC analysis was conducted to analyze for SADBE content, for analysis of the dose formulation prepared by APS and to determine stability of the test article in the dermal patches during the application time and to test for residual SADBE in the dermal patches after 12 hours applied to the animals.
# The skin patches consisted of a polymer backing layer similar to 3M 9916 polyester nonwoven backing layer with adhesive, 3M 9733 polyester film laminate barrier layer, and Precision Fabrics Group 0700-00010 polyester gauze layer. The gauze was heat sealed to the barrier layer. The gauze patch area was 1.53 cm^2.
# The tubes of DMSO with patches were transported to the Squarex laboratory, shaken at 200 rpm for 30 minutes to overnight, and then the DMSO from each tube was placed in an injection vial and analyzed for SADBE content by HPLC on a C18 column with the program SADBE3-50 ul. SADBE elutes in this program at about 24.0 minutes and absorbs at 255 nm, so the area of the 24.0 min peak at 255 nm was used to quantify SADBE. The SADBE degradation product squaric acid monobutyl ester (SAMBE) was also quantified by 255 nm area under the curve at the elution time of 12.7 minutes.
# The test article vials of 2%, 6%, and 18% SADBE dissolved in DMSO complied with specifications and had the predicted concentrations of SADBE at 24 hours after preparation.
# The results indicated the SADBE was stable for more than 12 hours in the patches when not exposed to animal skin. There was no apparent loss of SADBE or conversion of SADBE to SAMBE.
# mini pig skin = assay: Cutaneous irritation (Draize, Primary Irritation Index) after SADBE dermal patch in Gottingen mini-pig; assay type: in vivo, Gottingen miniswine; details: for Primary Irritation Index (pII) / Primary Irritation Index (pII), transient peak: 0-8 scale; for Primary Irritation Index (pII), transient peak: after the second dose; for duration of moderate levels of irritation / time to return to non-irritating levels post-dermal-application: re-challenge; for duration of severe cutaneous irritation: re-challenge at naive site
# Procedure: as §2
# Cutaneous irritation at the test site was observed and scored each day of the study by the Draize Scale for both Erythema & Eschar and Edema. The scale for each is in Tables 9 and 10 in Example 5, each on a 0-4 scale. The cumulative Erythema & Eschar and Edema score was the Primary Irritation Index score, which would therefore be on a 0-8 scale.
# The daily primary irritation index (pII) for each test article dose over the course of the study was calculated (FIG. 5). The pII is used to categorize the test article treatments as negligible to not irritating (0-0.9), slight (0.9-1.9), moderate (2-4.9) or severe (5-8) irritation potential.
# [4] = any dose (2%, 6%, 18% SADBE patch)
# [5] = any dose tested (2%, 6%, 18% SADBE patch)
# [6] = female, Group 1, 2% SADBE patch
# [7] = female, Group 3, 18% SADBE patch
# [8] = 2% patch control, 20 ul, >12 hours in air
# [9] = 2% vial, SADBE in DMSO, 24 hours after preparation
# [10] = 6% patch control, 20 ul, >12 hours in air
# [11] = 6% vial, SADBE in DMSO, 24 hours after preparation
# [12] = 18% vial, SADBE in DMSO, 24 hours after preparation
smiles,measurement,setting,value
"CCCCOc1c(OCCCC)c(=O)c1=O [SADBE, squaric acid dibutyl ester]",histopathology of treated skin sites: inflammatory infiltrates in the dermis,[1]; 2% & 6% SADBE,multifocal rare to mild infiltrates of inflammatory cells
same,histopathology of treated skin sites: inflammatory infiltrates in the dermis,[1]; 18% SADBE,multifocal mild to heavy infiltrates of inflammatory cells
same,histopathology: necrosis and fatty infiltration,[1]; all SADBE treated sites,minimal multifocal necrosis and fatty infiltration were observed
same,Cervical and Inguinal lymph node sections,"[1]; all animals, all doses",within normal limits
same,gross necropsy,[1]; all doses,No abnormalities were noted
same,histopathology: parakeratosis,[1]; all sections examined,mild to moderate parakeratosis
same,effect on body weight,[1]; [4],no significant effect
same,effect on food consumption,[1]; [4],no significant effect
same,histopathology: neovascularization and fibrosis,[1]; any tissue sections examined,Neovascularization and fibrosis was not noted
same,lymph node sections,[2]; all SADBE treated groups (summary),within normal limits
same,clinical monitoring observations,[2]; all doses,did not reveal any significant abnormalities
same,histopathology observed at all SADBE treated sites (summary),[2]; all doses,"mild to moderate parakeratosis, minimal multifocal necrosis and fatty infiltration"
same,systemic toxicity,"[2]; all doses, post-dosing and daily throughout study",no signs of systemic toxicity
same,effect on body weight,[2]; [5],no significant effect; also recorded: not affected
same,effect on food consumption,[2]; [5],no significant effect; also recorded: not affected
same,histopathology of treated skin sites: inflammatory infiltrates in the dermis,[2]; [6],multifocal rare to mild infiltrates of inflammatory cells
same,"histopathology of treated skin sites: necrosis, neovascularization, fibrosis, fatty infiltration",[2]; [6],"Necrosis, neovascularization, fibrosis and fatty infiltration were not noted"
same,histopathology of treated skin sites: inflammatory infiltrates in the dermis,"[2]; female, Group 2, 6% SADBE patch",multifocal rare to mild infiltrates of inflammatory cells
same,"histopathology of treated skin sites: necrosis, neovascularization, fatty infiltration","[2]; female, Group 2, 6% SADBE patch, narrow fibrous band in three animals","Necrosis, neovascularization and fatty infiltration were not noted"
same,histopathology of treated skin sites: inflammatory infiltrates in the dermis,[2]; [7],multifocal rare to mild infiltrates of inflammatory cells
same,"histopathology of treated skin sites: necrosis, neovascularization",[2]; [7],Minimal multifocal necrosis and neovascularization was noted
same,histopathology of treated skin sites: inflammatory infiltrates in the dermis,"[2]; male, Group 1, 2% SADBE patch",multifocal rare infiltrates of inflammatory cells
same,"histopathology of treated skin sites: necrosis, neovascularization, fibrosis, fatty infiltration","[2]; male, Group 1, 2% SADBE patch","Necrosis, neovascularization, fibrosis and fatty infiltration were not noted"
same,histopathology of treated skin sites: inflammatory infiltrates in the dermis,"[2]; male, Group 2, 6% SADBE patch",multifocal rare to mild infiltrates of inflammatory cells
same,"histopathology of treated skin sites: necrosis, neovascularization, fibrosis, fatty infiltration","[2]; male, Group 2, 6% SADBE patch","Necrosis, neovascularization, fibrosis and fatty infiltration were not noted"
same,histopathology of treated skin sites: inflammatory infiltrates in the dermis,"[2]; male, Group 3, 18% SADBE patch",multifocal rare to heavy infiltrates of inflammatory cells
same,"histopathology of treated skin sites: necrosis, neovascularization","[2]; male, Group 3, 18% SADBE patch","Minimal, multofocal necrosis and mild multifocal neovascularization was noted"
same,% of expected SADBE,[3]; [8],97.7%
same,SAMBE as percent of SADBE,[3]; [8],0.86%
same,% of expected SADBE,[3]; [9],100.8%
same,SAMBE as percent of SADBE,[3]; [9],0.88%
same,% of expected SADBE,[3]; [10],96.8%
same,SAMBE as percent of SADBE,[3]; [10],0.96%
same,% of expected SADBE,[3]; [11],97.5%
same,SAMBE as percent of SADBE,[3]; [11],0.96%
same,% of expected SADBE,[3]; [12],104.4%
same,SAMBE as percent of SADBE,[3]; [12],1.00%
same,time SADBE was stable in the patches,"[3]; patches not exposed to animal skin, no apparent loss or conversion to SAMBE",more than 12 hours
same,irritation category by Primary Irritation Index (pII),"mini pig skin; 2% SADBE, 20 microliters patch, ~12 hours, first dose",moderately irritating
same,Primary Irritation Index (pII),"mini pig skin; 2% SADBE, after the first dose",~3.5
same,"Primary Irritation Index (pII), transient peak",mini pig skin; 2% SADBE,5
same,duration of moderate cutaneous irritation,"mini pig skin; 2% SADBE, induction",> 15 days
same,duration of moderate levels of irritation,mini pig skin; 2% SADBE,~17 days
same,time to return to non-irritating levels post-dermal-application,mini pig skin; 2% SADBE,~22 days
same,irritation category by Primary Irritation Index (pII),"mini pig skin; 2% SADBE, re-challenge (second dose)",moderately-severely irritating
same,duration of severe cutaneous irritation,mini pig skin; 2% SADBE,1 to 2 days
same,irritation category by Primary Irritation Index (pII),"mini pig skin; 6% SADBE, 20 microliters patch, ~12 hours, first dose",moderately irritating
same,Primary Irritation Index (pII),"mini pig skin; 6% SADBE, after the first dose",3.0-4.0
same,"Primary Irritation Index (pII), transient peak",mini pig skin; 6% SADBE,5.5
same,duration of moderate cutaneous irritation,"mini pig skin; 6% SADBE, induction",~21 days
same,duration of moderate levels of irritation,mini pig skin; 6% SADBE,~19 days
same,time to return to non-irritating levels post-dermal-application,mini pig skin; 6% SADBE,~22 days
same,irritation category by Primary Irritation Index (pII),"mini pig skin; 6% SADBE, re-challenge (second dose)",moderately-severely irritating
same,duration of severe cutaneous irritation,mini pig skin; 6% SADBE,1 days
same,irritation category by Primary Irritation Index (pII),"mini pig skin; 18% SADBE, 20 microliters patch, ~12 hours, first dose",moderately-severely irritating
same,Primary Irritation Index (pII),"mini pig skin; 18% SADBE, first dose",~5.0
same,duration of moderate-severe cutaneous irritation,"mini pig skin; 18% SADBE, induction",~22 days
same,duration of moderate levels of irritation,mini pig skin; 18% SADBE,~24 days
same,time to return to non-irritating levels post-dermal-application,mini pig skin; 18% SADBE,~26 days
same,irritation category by Primary Irritation Index (pII),"mini pig skin; 18% SADBE, re-challenge (second dose)",severely irritating
same,duration of severe cutaneous irritation,mini pig skin; 18% SADBE,~5 days
same,Primary Irritation Index (pII),"mini pig skin; 18% SADBE, second dose",~6
